From ChEMBL document CHEMBL1201862, “PubChem BioAssay data set” (2004) come the findings set out here.

Test systems include BT-549; CCRF-CEM; EKVX; HOP-62; HT-29; LOX IMVI; M14; NCI-H522; OVCAR-3; OVCAR-5; SF-268; SK-OV-3; SN12C; SR; U-251; UACC-257; HOP-92; Hs-578T; NCI-H226; RPMI-8226.
What all share (assay): NCI-60 cell line screen, 48 h

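How tested: cells in 96-well plates exposed to compound for 48 hours at five concentrations. Here, GI50 denotes the concentration required for 50% inhibition of growth.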 The source made the active and inactive calls. No stated cut-off is given here; in the data, active = GI50 up to about 1.1 µM and inactive = higher.

For `SC[C@@H]1COC[C@H](CS)S1`, the GI50 in the experiment with BT-549, in the experiment with CCRF-CEM, in the experiment with EKVX, with HOP-62, with HT-29 and with LOX IMVI was > 100 µM (inactive) in each case. The GI50 with M14, in the experiment on NCI-H522, with OVCAR-3, in the experiment with OVCAR-5, in the experiment on SF-268 and in the experiment on SK-OV-3 was > 100 µM (inactive) throughout. Also, the GI50 in the experiment with SN12C, in the experiment on SR, in the experiment with U-251 and with UACC-257 was > 100 µM (inactive) throughout.
Take `COC(=O)c1ccccc1C1CN=NC12Cc1ccc3c(c1C2=O)CCC3` (stereo not given): the GI50 in the experiment with BT-549 was > 100 µM (inactive); with CCRF-CEM it was 19.3 µM (inactive); in the experiment on EKVX it was > 100 µM (inactive); in the experiment with HOP-62 it was > 100 µM (inactive); in the experiment with HOP-92, 23.1 µM (inactive); in the experiment on HT-29 it was 82 µM (inactive). Further, the GI50 in the experiment on Hs-578T was 74.3 µM (inactive); with LOX IMVI it was 9.04 µM (inactive); with M14, > 100 µM (inactive); with NCI-H226 it was 55.1 µM (inactive); with NCI-H522, 6.55 µM (inactive); with OVCAR-3 it was 6.92 µM (inactive). In addition, the GI50 in the experiment on OVCAR-5 is > 100 µM (inactive); with SF-268, 27.6 µM (inactive); in the experiment on SK-OV-3, 49.4 µM (inactive); with SN12C it was > 100 µM (inactive); in the experiment with U-251, 49.1 µM (inactive); in the experiment on UACC-257, 44.1 µM (inactive).
Consider `O=C(O)c1ccccc1CC(Cc1ccc2c(c1)CCC2)C(=O)O` (stereo not given), for which the GI50 in the experiment with CCRF-CEM, in the experiment with EKVX, in the experiment on HOP-62, in the experiment on HOP-92, with HT-29 and in the experiment with Hs-578T was > 100 µM (inactive) each time. The GI50 in the experiment on LOX IMVI, in the experiment with M14, in the experiment with NCI-H226, in the experiment with NCI-H522, with OVCAR-3 and in the experiment with OVCAR-5 was > 100 µM (inactive) in each case. Moreover, the GI50 is > 100 µM (inactive) with RPMI-8226; > 100 µM (inactive) with SF-268; > 100 µM (inactive) in the experiment with SK-OV-3; > 100 µM (inactive) in the experiment on SN12C; 8.07 µM (inactive) with SR; > 100 µM (inactive) in the experiment on U-251. The GI50 in the experiment on UACC-257 is > 100 µM (inactive).
As for `C=C1CC[C@H]2C(=O)OC(c3ccoc3)C[C@]2(C)C/C=C\C=C/1C(=O)OC` (stereo not given in full), the GI50 in the experiment on BT-549, in the experiment with EKVX, in the experiment on HOP-62, with HOP-92, with HT-29 and in the experiment on Hs-578T was > 25 µM (inactive) each time. Also, the GI50 is > 25 µM (inactive) with LOX IMVI; > 25 µM (inactive) with M14; > 25 µM (inactive) with NCI-H226; 13.9 µM (inactive) with OVCAR-3; > 25 µM (inactive) with OVCAR-5; > 25 µM (inactive) in the experiment with SK-OV-3. Also, the GI50 in the experiment on SN12C, in the experiment with U-251 and in the experiment with UACC-257 was > 25 µM (inactive) each time.
As to `Cc1cn([C@H]2CN(O)C[C@@H](CO)O2)c(=O)[nH]c1=O`, the GI50 in the experiment with BT-549, in the experiment with EKVX, in the experiment with HOP-62, in the experiment with Hs-578T, in the experiment with M14 and in the experiment with NCI-H226 was > 100 µM (inactive) in each case. Further, the GI50 with OVCAR-5, with RPMI-8226, with SF-268, in the experiment with SK-OV-3, in the experiment on SN12C and with U-251 was > 100 µM (inactive) in each case. In addition, the GI50 with UACC-257 is > 100 µM (inactive).
In the case of `Nc1ccc2c3c1cccc3c(=O)n1c3ccc(Cc4ccc5c(c4)nc4c6ccc(N)c7cccc(c(=O)n54)c76)cc3nc21`, the GI50 in the experiment on BT-549, with CCRF-CEM, with EKVX, in the experiment with HOP-62, with HOP-92 and in the experiment with HT-29 was > 100 µM (inactive) each time. Further, the GI50 with LOX IMVI, with M14, in the experiment on NCI-H226, in the experiment on NCI-H522, with OVCAR-3 and with OVCAR-5 was > 100 µM (inactive) each time. For the same molecule, the GI50 in the experiment with RPMI-8226, in the experiment with SK-OV-3, in the experiment on SN12C, in the experiment on SR, with U-251 and with UACC-257 was > 100 µM (inactive) throughout.
With `CCOC(=O)[C@@H]1ON2O[C@H](OC3CCCCC3c3ccccc3)C[C@H]3OC(=O)[C@@H]1C32` (stereo not given in full), the GI50 in the experiment with CCRF-CEM was 0.209 µM (active); in the experiment with EKVX, > 100 µM (inactive); with HOP-62, > 100 µM (inactive); with HOP-92, > 100 µM (inactive); in the experiment on HT-29, > 100 µM (inactive); in the experiment with Hs-578T it was > 100 µM (inactive). The GI50 in the experiment on LOX IMVI is > 100 µM (inactive); in the experiment with M14, > 100 µM (inactive); in the experiment on NCI-H226, > 100 µM (inactive); in the experiment with NCI-H522 it was 67.6 µM (inactive); in the experiment with OVCAR-3, > 100 µM (inactive); in the experiment with OVCAR-5 it was > 100 µM (inactive). The GI50 in the experiment with RPMI-8226, in the experiment with SF-268, in the experiment with SK-OV-3, with SN12C, in the experiment on SR and in the experiment on U-251 was > 100 µM (inactive) each time. Further, the GI50 in the experiment with UACC-257 is > 100 µM (inactive).
Turning to `COC(=O)c1cc(NC(=O)c2cc(NC(=O)Cc3c[nH]c4ccccc34)cn2C)cn1C`, the GI50 was 37.3 µM (inactive) in the experiment on BT-549; 32.7 µM (inactive) in the experiment with CCRF-CEM; 22.2 µM (inactive) with EKVX; > 100 µM (inactive) in the experiment on HOP-62; 22.2 µM (inactive) with HT-29; 32 µM (inactive) in the experiment with LOX IMVI. For the same molecule, the GI50 with M14 is 33 µM (inactive); with NCI-H226, 30.8 µM (inactive); in the experiment on OVCAR-3, 41.9 µM (inactive); in the experiment with OVCAR-5, 39.3 µM (inactive); with RPMI-8226, 20.5 µM (inactive); in the experiment on SF-268, 42.6 µM (inactive). The GI50 in the experiment on SK-OV-3 is 40 µM (inactive); in the experiment with SN12C, 33.4 µM (inactive).
As to `O=C1/C(=C\c2ccc(Cl)cc2)N=C(c2ccccc2)N1n1c(=O)cn[nH]c1=S`, the GI50 is 28.5 µM (inactive) with BT-549; 2.56 µM (inactive) in the experiment with CCRF-CEM; > 100 µM (inactive) in the experiment on EKVX; 52.2 µM (inactive) in the experiment on HOP-62; 37.7 µM (inactive) in the experiment on HT-29; 27.8 µM (inactive) in the experiment with LOX IMVI. The GI50 was > 100 µM (inactive) in the experiment with M14; 15.8 µM (inactive) in the experiment with NCI-H522; 27.4 µM (inactive) with OVCAR-3; > 100 µM (inactive) in the experiment with OVCAR-5; 18.4 µM (inactive) with RPMI-8226; > 100 µM (inactive) with SK-OV-3. Also, the results for the GI50 with SR, in the experiment with U-251 and in the experiment with UACC-257 were 22.5 µM (inactive), 19.8 µM (inactive) and 29.5 µM (inactive), respectively.
As to `Nc1ccc2c(c1)C(=O)N1CCC[C@H]1C(=O)N2`, the GI50 in the experiment on BT-549 was > 100 µM (inactive); in the experiment on CCRF-CEM, 1.38 µM (inactive); in the experiment with EKVX, > 100 µM (inactive); in the experiment with HOP-62, > 100 µM (inactive); in the experiment on HOP-92, > 100 µM (inactive); in the experiment with HT-29, > 100 µM (inactive). Besides, the GI50 in the experiment with LOX IMVI, with M14, in the experiment with NCI-H226, in the experiment on NCI-H522, in the experiment on OVCAR-3 and with OVCAR-5 was > 100 µM (inactive) in each case. The GI50 with RPMI-8226, in the experiment on SF-268, in the experiment with SK-OV-3, with SN12C, in the experiment on SR and in the experiment on U-251 was > 100 µM (inactive) in each case. The GI50 with UACC-257 is > 100 µM (inactive).
As for `O=C1C(=c2cc3c(c4ccccc24)=NC24CCCCC2C(c2ccccc2)C=C(c2ccccc2)N34)C(=O)c2ccccc21` (stereo not given), the GI50 with CCRF-CEM was 15.6 µM (inactive); in the experiment with EKVX it was 12.7 µM (inactive); with HOP-62, 74 µM (inactive); in the experiment with HOP-92 it was 27.9 µM (inactive); with HT-29, 53 µM (inactive); in the experiment with Hs-578T, 34 µM (inactive). Besides, the GI50 is 34.2 µM (inactive) with LOX IMVI; 44 µM (inactive) in the experiment on M14; 44.3 µM (inactive) with NCI-H226; 16.7 µM (inactive) with NCI-H522; 22 µM (inactive) in the experiment with OVCAR-3; > 100 µM (inactive) in the experiment with OVCAR-5. In addition, the GI50 was 11.4 µM (inactive) in the experiment on RPMI-8226; 30.3 µM (inactive) with SF-268; > 100 µM (inactive) with SK-OV-3; > 100 µM (inactive) with SN12C; 26.4 µM (inactive) in the experiment on SR; 36.8 µM (inactive) in the experiment on U-251. For the same molecule, the GI50 in the experiment with UACC-257 was > 100 µM (inactive).
